In patent publication US5578575A, “Partially modified and retro-inverted tetrapeptides analogues of C-reactive protein fragments” (Italfarmaco S.P.A., priority 1992, dated 1996):

What was measured:
[1] = tested on: murine peritoneal macrophages; assay: Stimulation of IL-1 production by murine peritoneal macrophages (ELISA); assay type: cell-based, BALB/C mice; conditions: 96 h; for IL-1 production, Stimulation index: with respect to control; for IL-1 production, U/ml: control 15
Description: Stimulation of IL-1 production by murine peritoneal macrophages Murine peritoneal macrophages were obtained by inoculation of a solution of hydrolized starch (BDH Chemicals, Poole, Dorset, UK) into the peritoneal cavity of BALB/C mice, three days before sacrificing the animals. The peritoneal cells were then collected by washing the peritoneal cavity with a solution of RPMI 1640 containing 10% of FCS, and resuspended in the same solution at a concetration of 10^6 cells/ml in 96-well plates. The incubation was performed for 96 hours at 37° C. in the presence of the compounds in question. At the end of the treatment the supernatants were collected and used for dosing cytokine by means of a suitable ELISA commerical kit (Genzyme, Boston, Mass., USA).

murine peritoneal cells = assay: Stimulation of the nitric oxide by murine peritoneal cells (chemiluminescence); assay type: cell-based, BALB/C mice; conditions: 96 h, with LPS 30 μg/ml; for nitric oxide, Stimulation index: with respect to control; for nitric oxide content: control 20
Procedure: Stimulation of the nitric oxide by murine peritoneal cells The peritoneal cells were obtained as described in the previous test, and incubated for 96 hours at 37° C. in the presence of the compounds in question and of lipopolysaccharide at a concentration of 30 μg/ml. At the end of the treatment the supernatants were collected and the nitric oxide content was determined by the chemiluminescence test described by Palmer R. M. J. et al, Nature, 327, 524, 1987.

Leishmania major = assay: Effect on the leishmanicidal activity of murine peritoneal macrophage (3H-thymidine incorporation by living parasites); assay type: cell-based; conditions: for cpm (counts per minute), 3H-thymidine incorporation by living parasites: control 18,273
Procedure: Effect on the leishmanicidal activity of murine peritoneal macrophage The peritoneal cells collected as described above were seeded in 96-well flat bottom plates (Nunc, Roskiled, DK) at a concentration of 10^5 […]; and incubated per 24 hours at 37° C. At the end of the treatment, the cells not adherent to the well were separated and discharged, whereas the adherent cells were washed three time with culture medium and incubated for 24 hours with the compounds in question, then the cells were infected through a 24 hours incubation with promastigotes of Leishmania major (L. major, PVL49 strain supplied by Dr. Neal R. A., London School of Hygiene and Tropical Medicine, London, UK). At the end of the infection treatment each well was added with 100 μl of a 0.01% solution od sodium dodecylsulphate in RPMI 1640, and the plates were incubated for 30 minutes at 37° C. The Schneider's culture medium (Schneider Drosophila medium, Gibco Lab., Grand Island, N.Y., USA) with 30% of FCS was added. Each well was added with 1 μCi of ^3 H-thymidine, and a 72 hours incubation was carried out at 37° C. The incorporation of radioactivity by the living parasites inside the peritoneal cells, which is correlated to the infection degree and consequently to the leishmanicidal activity of the cells, was measured by collecting the cells by means of a cell-harvester and measuring the radioactivity with liquid scintillation β-counter.

murine splenocytes = assay: Stimulation of in vitro IFN-.tau. production by murine splenocytes (ELISA); assay type: cell-based, BALB/C mice; conditions: for IFN-.tau. production, Stimulation index / IFN-.tau. production, U/ml: 24 h; for IFN-.tau. production, Stimulation index: with respect to control; for IFN-.tau. production, U/ml: control 31 (Ex. 1, Ex. 2), 41 (Ex. 3)
Procedure: Stimulation of in vitro IFN-.tau.production by murine splenocytes The splenic cells were obtained from spleen of BALB/C mice as single cells suspension. The splenocytes thus obtained were resuspended in RPMI 1640 culture medium (Flow Lab., Hertz, UK) containing 5% of fetal calf serum (FCS) (HyClone, ST, Utah, USA) at a final concentrazione of 10^7 cells/ml, and incubated in 96-well plates for 24 hours at 37° C. in the presence of the tested compounds at the indicated concentration. At the end of the incubation the supernatant was collected, filtered by […] filter and freezed to -80° C. until the time of the test carried out by ELISA commercial kit (Genzyme, Boston, Mass., USA).

BALB/C mice = assay: In vivo protection against septic shock (LPS-inoculated mice, survival); conditions: LPS 50 mg/kg i.p., compound at time 0 or 30 minutes after LPS, checked for 8 days
Procedure: Evaluation of the in vivo protection against septic shock
BALB/C mice (6 mice/group) weighting between 20 and 25 g, were intraperitoneally inoculated with 50 mg/kg of LPS (lipopolysaccharide-Sigma). The groups, except for the control, were inoculated with increasing doses of one of the compounds of the invention dissolved in physiologic solution having a final volume of 0.5 ml, at time 0 (i.e. together with LPS) or 30 minutes after the LPS inoculation. The mice were checked for 8 days to determined the survival percentage. Compound of Example 1 yields a survival percentage of about 65% at doses of 6.2 ug/mouse and 0.62 ug/mouse, and its isomer B yields a survival percentage of about 80% at a dose of 6.25 ug/mouse and of 75% at a dose of 62.5 ug/mouse.

## N=C(N)NCCC[C@H](NC(=O)[C@@H]1CCCN1C(=O)C(CCCCN)C(=O)NCN)C(=O)O (single isomer, unassigned) [Example 1]
[1]; 0.01 μg/ml
  IL-1 production, Stimulation index: 0.4
  IL-1 production, U/ml: 6 U/ml
[1]; 0.1 μg/ml
  IL-1 production, Stimulation index: 0.1
  IL-1 production, U/ml: 2 U/ml
[1]; 1.0 μg/ml
  IL-1 production, Stimulation index: 0.1
  IL-1 production, U/ml: 2 U/ml
[1]; 10.0 μg/ml
  IL-1 production, Stimulation index: 0,1
  IL-1 production, U/ml: 2 U/ml
Murine peritoneal cells; 0.01 μg/ml
  nitric oxide, Stimulation index: 2.2
  nitric oxide content: 43 nmol/mL
Murine peritoneal cells; 0.1 μg/ml
  nitric oxide, Stimulation index: 3.0
  nitric oxide content: 59 nmol/mL
Murine peritoneal cells; 1.0 μg/ml
  nitric oxide, Stimulation index: 3.9
  nitric oxide content: 77 nmol/mL
Murine peritoneal cells; 10.0 μg/ml
  nitric oxide, Stimulation index: 2.9
  nitric oxide content: 57 nmol/mL
Leishmania major; 0.1 μg/ml (minimum dose used)
  % reduction of infection: over 70%
Leishmania major; 0.1 μg/ml (minimum dose used), listed as Es. 1
  % reduction of infection: 72%
Leishmania major; 0.1 μg/ml
  cpm (counts per minute), 3H-thymidine incorporation by living parasites: 5,096 cpm
Leishmania major; 1.0 μg/ml
  % reduction of infection: 79%
  cpm (counts per minute), 3H-thymidine incorporation by living parasites: 3,783 cpm
Leishmania major; 10.0 μg/ml
  % reduction of infection: 77%
  cpm (counts per minute), 3H-thymidine incorporation by living parasites: 4,292 cpm
Murine splenocytes; 0.1 μg/ml
  IFN-.tau. production, Stimulation index: 1.1
  IFN-.tau. production, U/ml: 33 U/ml
Murine splenocytes; 1.0 μg/ml
  IFN-.tau. production, change in words: doubled
  IFN-.tau. production, Stimulation index: 1.9
  IFN-.tau. production, U/ml: 60 U/ml
Murine splenocytes; 10.0 μg/ml
  IFN-.tau. production, Stimulation index: 1.6
  IFN-.tau. production, U/ml: 49 U/ml
BALB/C mice; 0.62 ug/mouse
  survival percentage: about 65%
BALB/C mice; 6.2 ug/mouse
  survival percentage: about 65%

## N=C(N)NCCC[C@H](NC(=O)[C@@H]1CCCN1C(=O)C(CCCCN)C(=O)NCN)C(=O)O (single isomer, unassigned) [ITF 1358]
BALB/C mice; 6.25 ug/mouse
  survival percentage: about 80%
BALB/C mice; 62.5 ug/mouse
  survival percentage: 75%
